According to patent publication US6696497B2, “Fungicidal mixtures” (BASF Aktiengesellschaft, priority 2000, dated 2004):

Assays:
[1] = system: Plasmopara viticola on grapes; assay: Fungicidal efficacy (2 day curative) on grapes, greenhouse; assay type: in vivo; conditions: single compound
Procedure: (§1) The trials are carried out under greenhouse conditions in residual or curative applications. The fungicides are applied in single treatments, or in a combination comprising a benzophenone of formula I and a compound of formula II. The compounds are applied in form of an aqueous spray mix obtained from concentrated formulation or the technical material.
(§2) Grape plants of variety “Mueller-Thurgau” are grown in the greenhouse from small stake cuttings. When about 40 cm high, the number of leaves is reduced to 4 fully expanded leaves per plant.
(§3) The compounds are dissolved in acetone with 0.5% TRITON™ X155 (an alkylaryl polyether alcohol), and sprayed in concentrations and combinations as given in tables I and II with a three nozzle overhead fungicide sprayer to near run-off. Plants are then allowed to air-dry.
(§4) Inoculation precedes treatment in the case of curative evaluations and follows treatment in case of residual evaluations.
(§5) For inoculation an aqueous spore suspension of the pathogen is applied to the plant and the plants are kept 1-2 days in a moist infection chamber before being returned to the greenhouse where they are maintained by bottom watering.
(§6) Disease on the foliage as percent leaf area with disease symptoms/signs is evaluated about 7 days after inoculation. [formula]
(§7) Assessments of the diseases took place at the indicated day after the application of the compounds. Percent infected leaf area infected was evaluated. The efficacy of the compounds/compounds mixtures to control the diseases was calculated by using the formula given above.
(§8) Synergy was calculated using the % disease control values of specific treatments for the two COLBY formula given hereinabove.
Fungicidal efficacy of the mixture of BP-4+iprovalicarb (2 day curative) against Plasmopara viticola on grapes
The tank mix was obtained from technical materials of BP-4 and iprovalicarb.

[2] = system: Plasmopara viticola on grapes; assay: Fungicidal efficacy (3 day residual) on grapes, greenhouse; assay type: in vivo; conditions: single compound
Procedure: as §1, §2, §3, §4, §5, §6, §7, §8
Fungicidal efficacy of the mixture of BP-4+iprovalicarb (3 day residual) against Plasmopara viticola on grapes
tank mix was obtained from technical materials of BP-4 and iprovalicarb.

Structure (SMILES)	Observed Efficacy ([1]; dose rate 0.037 ppm)	Observed Efficacy ([1]; dose rate 0.11 ppm)	Observed Efficacy ([1]; dose rate 0.33 ppm)	Observed Efficacy ([1]; dose rate 1 ppm)	Observed Efficacy ([1]; dose rate 3 ppm)	Observed Efficacy ([1]; dose rate 9 ppm)	Observed Efficacy ([1]; dose rate 27 ppm)	Observed Efficacy ([2]; dose rate 0.037 ppm)	Observed Efficacy ([2]; dose rate 0.11 ppm)	Observed Efficacy ([2]; dose rate 0.33 ppm)	Observed Efficacy ([2]; dose rate 1 ppm)	Observed Efficacy ([2]; dose rate 3 ppm)	Observed Efficacy ([2]; dose rate 9 ppm)	Observed Efficacy ([2]; dose rate 27 ppm)
COc1cc(C)c(C(=O)c2c(OC)ccc(Br)c2C)c(OC)c1OC [BP-4, 5-bromo-2′,6-dimethyl-2,4′,5′,6′-tetramethoxybenzophenone]	0%	0%	0%	0%	0%	0%	2%	0%	0%	0%	0%	1%	4%	6%
Cc1ccc(C(C)NC(=O)C(NC(=O)OC(C)C)C(C)C)cc1 (stereo not drawn) [iprovalicarb, [2-methyl-1-[1-(4-methylphenyl)-ethylaminocarbonyl]-propyl]-carbamic acid isopropyl ester, reference compound]		0%	2%	11%	63%	91%			0%	3%	11%	55%	90%	
